Converted amounts (≈) assume the structure as drawn.
Key:
Mus musculus [1] = assay: In vivo antitumor activity against P388 murine leukemia as percentage increase in life span as compared with the untreated at a dose of 0.125 mg/kg administered intraperitoneally; type: functional; details: P388, ip, route intraperitoneal
P388 = assay: Tested in vitro for cytotoxicity as concentration required to inhibit 50 percent growth of P388 murine leukemia cells; type: functional, cell-based; details: Mus musculus
Mus musculus [2] = assay: In vivo antitumor activity against P388 murine leukemia as percentage increase in life span as compared with the untreated at a dose of 1 mg/kg administered intraperitoneally; type: functional; details: P388, ip, route intraperitoneal
Mus musculus [3] = assay: In vivo antitumor activity against P388 murine leukemia as percentage increase in life span as compared with the untreated at a dose of 0.063 mg/kg administered intraperitoneally; type: functional; details: P388, ip, route intraperitoneal
Mus musculus [4] = assay: In vivo antitumor activity against P388 murine leukemia as percentage increase in life span as compared with the untreated at a dose of 0.5 mg/kg administered intraperitoneally; type: functional; details: P388, ip, route intraperitoneal
Mus musculus [5] = assay: In vivo antitumor activity against P388 murine leukemia as percentage increase in life span as compared with the untreated at a dose of 0.625 mg/kg administered intraperitoneally; type: functional; details: P388, ip, route intraperitoneal
Mus musculus [6] = assay: In vivo antitumor activity against P388 murine leukemia as percentage increase in life span as compared with the untreated at a dose of 0.25 mg/kg administered intraperitoneally; type: functional; details: P388, ip, route intraperitoneal

| Compound | ILS at 0.125 mg/kg (Mus musculus [1]) | IC50 (P388) | other results |
| --- | --- | --- | --- |
| COC(=O)c1[nH]c2c(c1C(=O)OC)C13CC1CN(C(=O)c1cc4cc(OC)ccc4[nH]1)C3=CC2=O (stereo not drawn) | 49% | 0.63 ng/mL (≈ 1.33 nM) |  |
| COC(=O)c1[nH]c2c(O)cc3c(c2c1C(=O)OC)C(CCl)CN3C(=O)c1cc2cc(OC)c(OC)c(OC)c2[nH]1 (stereo not drawn) |  | 0.31 ng/mL (≈ 0.542 nM) | ILS at 1 mg/kg (Mus musculus [2]): 73% |
| COC(=O)c1[nH]c2c(c1C(=O)OC)C13CC1CN(C(=O)c1cc4cc(OC)c(OC)c(OC)c4[nH]1)C3=CC2=O (stereo not drawn) |  | 0.74 ng/mL (≈ 1.38 nM) | ILS at 0.063 mg/kg (Mus musculus [3]): 43% |
| COC(=O)c1[nH]c2c(O)cc3c(c2c1C(=O)OC)C(CCl)CN3C(=O)c1cc2cc(NC(=O)c3cc4ccccc4[nH]3)ccc2[nH]1 (stereo not drawn) |  | 0.24 ng/mL (≈ 0.375 nM) | ILS at 0.5 mg/kg (Mus musculus [4]): 90% |
| COC(=O)c1[nH]c2c(O)cc3c(c2c1C(=O)OC)C(CCl)CN3C(=O)c1cc2cc(OC)ccc2[nH]1 (stereo not drawn) |  | 0.27 ng/mL (≈ 0.527 nM) | ILS at 1 mg/kg (Mus musculus [2]): 43% |
| COC(=O)c1[nH]c2c(O)cc3c(c2c1C(=O)OC)C(CCl)CN3C(=O)c1cc2cc(NC(=O)c3cc4ccccc4o3)ccc2[nH]1 (stereo not drawn) |  | 0.32 ng/mL (≈ 0.499 nM) | ILS at 0.625 mg/kg (Mus musculus [5]): 115% |
| COC(=O)c1c(C)[nH]c2c1[C@@]13CC1CN(C(=O)c1cc4cc(OC)c(OC)c(OC)c4[nH]1)C3=CC2=O (mixture of isomers) | 80% | 0.34 ng/mL |  |
| COC(=O)c1[nH]c2c(c1C(=O)OC)C13CC1CN(C(=O)c1cc4cc(NC(=O)c5cc6ccccc6[nH]5)ccc4[nH]1)C3=CC2=O (stereo not drawn) | 102% |  |  |
| COC(=O)c1c(C)[nH]c2c(O)cc3c(c12)[C@H](CCl)CN3C(=O)c1cc2cc(OC)c(OC)c(OC)c2[nH]1 |  | 0.22 ng/mL (≈ 0.417 nM) | ILS at 0.25 mg/kg (Mus musculus [6]): 74% |
| COC(=O)c1[nH]c2c(c1C(=O)OC)C13CC1CN(C(=O)c1cc4cc(NC(=O)c5cc6ccccc6o5)ccc4[nH]1)C3=CC2=O (stereo not drawn) | 79% |  |  |

From ChEMBL document CHEMBL1150019, “Synthesis and antitumor activity of novel cyclopropapyrroloindole (CPI) derivatives bearing bis(methoxycarbonyl) groups” (Bioorg Med Chem Lett, 1997)
